Experiment [1] relates to T1, human pancreatic chymotrypsin.
T1 construct: "human pancreatic chymotrypsin"
The experiment in a line: Specificity assay, chymotrypsin. It is filed as biochemical. The conditions noted are these: 2 h enzyme-inhibitor pre-incubation; read-out: Chymotrypsin activity in the specificity assays (IC50). On the procedure: (§1) The specificities of compounds of the present disclosure were determined against a variety of serine proteases: human neutrophil elastase (HNE), porcine pancreatic elastase (PPE) and human pancreatic chymotrypsin and one cysteine protease: human liver cathepsin B. In all cases a 96-well plate format protocol using calorimetric p-nitroaniline (pNA) substrate specific for each enzyme was used as described previously (PCT Patent Application No. WO 00/09543) with some modifications to the serine protease assays. All enzymes were purchased from Sigma while the substrates were from Bachem.
(§2) Each assay included a 2 h enzyme-inhibitor pre-incubation at room temperature followed by addition of substrate and hydrolysis to 30% conversion as measured on a Spectramax Pro microplate reader. Compound concentrations varied from 100 to 0.4 μM depending on their potency. […]
(§3) The percentage of inhibition was calculated using the formula: [1−((UVinh−UVblank)/(UVctl−UVblank))]×100 […]

Experiment [2] has as its target T2, human neutrophil elastase (HNE) (Homo sapiens, UniProt P08246).
T2 construct: purchased Sigma
T2 sequence (P08246 30-267): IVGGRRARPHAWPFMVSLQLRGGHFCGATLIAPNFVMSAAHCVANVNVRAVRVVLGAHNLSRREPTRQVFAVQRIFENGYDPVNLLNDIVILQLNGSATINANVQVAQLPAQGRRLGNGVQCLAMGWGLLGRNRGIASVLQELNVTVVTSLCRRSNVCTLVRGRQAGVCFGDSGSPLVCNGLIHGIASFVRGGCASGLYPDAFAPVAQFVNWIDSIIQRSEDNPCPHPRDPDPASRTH
The experiment in a line: Specificity assay, neutrophil elastase. The conditions noted are these: 2 h enzyme-inhibitor pre-incubation; read-out: HLE activity in the specificity assays (IC50). It is filed as biochemical. On the procedure: as §1, §2, §3

Experiment [3] relates to HCV replicon in HUH-7 cells. As to the kind of experiment: HCV replicon FRET assay. It is filed as cell-based, HCV strain 1b. The conditions noted are these: Hepatitis C virus. The source says: An HCV replicon whole cell system was established as described by Lohmann V, Korner F, Koch J, Herian U, Theilmann L, Bartenschlager R., Science 285(5424):110-3 (1999). This system enabled us to evaluate the effects of our HCV Protease compounds on HCV RNA replication. Briefly, using the HCV strain 1b sequence described in the Lohmann paper (Assession number: AJ238799), an HCV cDNA was synthesized by Operon Technologies, Inc. (Alameda, Calif.), and the full-length replicon was then assembled in plasmid pGem9zf(+) (Promega, Madison, Wis.) using standard molecular biology techniques. The replicon consists of (i) the HCV 5′ UTR fused to the first 12 amino acids of the capsid protein, (ii) the neomycin phosphotransferase gene (neo), (iii) the IRES from encephalomyocarditis virus (EMCV), and (iv) HCV NS3 to NS5B genes and the HCV 3′ UTR. Plasmid DNAs were linearized with ScaI and RNA transcripts were synthesized in vitro using the T7 MegaScript transcription kit (Ambion, Austin, Tex.) according to manufacturer's directions. In vitro transcripts of the cDNA were transfected into the human hepatoma cell line, HUH-7. […] Resulting cell lines were characterized for positive and negative strand RNA production and protein production over time.
The HCV replicon FRET assay was developed to monitor the inhibitory effects of compounds described in the disclosure on HCV viral replication. HUH-7 cells, constitutively expressing the HCV replicon, were grown in Dulbecco's Modified Eagle Media (DMEM) (Gibco-BRL) containing 10% Fetal calf serum (FCS) (Sigma) and 1 mg/ml G418 (Gibco-BRL). Cells were seeded the night before (1.5×10^4 cells/well) in 96-well tissue-culture sterile plates. Compound and no compound controls were prepared in DMEM containing 4% FCS, 1:100 Penicillin/Streptomysin (Gibco-BRL), 1:100 L-glutamine and 5% DMSO in the dilution plate (0.5% DMSO final concentration in the assay). Compound/DMSO mixes were added to the cells and incubated for 4 days at 37° C. After 4 days, cells were first assessed for cytotoxicity using alamar Blue (Trek Diagnotstic Systems) for a CC50 reading. The toxicity of compound (CC50) was determined by adding 1/10th volume of alamar Blue to the media incubating the cells. After 4 h, the fluorescence signal from each well was read, with an excitation wavelength at 530 nm and an emission wavelength of 580 nm, using the Cytofluor Series 4000 (Perspective Biosystems). Plates were then rinsed thoroughly with Phosphate-Buffered Saline (PBS) (3 times 150 μl). The cells were lysed with 25 μl of a lysis assay reagent containing an HCV protease substrate (5× cell Luciferase cell culture lysis reagent (Promega #E153A) diluted to 1× with distilled water, NaCl added to 150 mM final, the FRET peptide substrate (as described for the enzyme assay above) diluted to 10 μM final from a 2 mM stock in 100% DMSO. […]. The plate was then placed into the Cytofluor 4000 instrument which had been set to 340 nm excitation/490 nm emission, automatic mode for 21 cycles and the plate read in a kinetic mode. EC50 determinations were carried out as described for the IC50 determinations.
For orientation: A replicon is a self-replicating genome or part of one, used to study replication in cells.

SMILES strings stand for the structures. Read-outs that look alike come from different tables or passages of the source.

The IC50 is the concentration that gives 50% inhibition. One may read the EC50 as the concentration needed to bring the measured effect to its halfway point.

In the case of `C=C[C@@H]1C[C@]1(NC(=O)[C@@H]1C[C@@](O)(c2ccc(-c3ccccc3)cc2)CN1C(=O)[C@@H](NC(=O)OC(C)(C)C)C(C)(C)C)C(=O)NS(=O)(=O)C1CC1` [Compound 3], the IC50 in experiment [1] and in experiment [2] was > 100 µM in each case. The EC50 is 28 nM in experiment [3] (96 h, HUH-7 replicon cells, 4 days, read-out: EC50 in the replicon FRET assay) and 10 to 1000 nM in experiment [3] (Huh-7, HCV replicon cell assay, read-out: Activity Range (EC50)).

The record behind these values is US7592336B2, “Hepatitis C virus inhibitors” (Bristol-Myers Squibb Company, priority 2005, dated 2009).
